How the values were obtained:
Mysidopsis bahia = assay: 48 hour acute static renewal toxicity bioassay, Mysidopsis bahia (E.P.A./600/4-85/013); type: in vivo; settings: EPA Probit Analysis
Description: (§1) A nutrient mixture and coating were prepared as described in example 1. The toxicity of the product as expressed by reduced survival of organisms exposed to various dilutions of the product was determined through a 48 hour acute static renewal bioassay using Mysidopsis bahia and Cyprinodon variegatus. E.P.A./600/4-85/013 test protocol was followed. All organisms were maintained at room temperature with a light/dark cycle of 16/8. Dilution water was made from Tropic Marine Synthetic Sea Salt and was aerated for 24 hours before use in the test. The test was performed in 600 ml polypropylene diSPo beakers rinsed in the dilution water. Ten organisms of Mysidopsis bahia were placed in 200 ml of dilution water making a 5 cm depth. Ten organisms of Cyprinodon variegatus were placed in 500 ml of dilution water making a 9.5 cm depth.
(§2) Dissolved oxygen, pH, conductivity and salinity, alkalinity and hardness were measured before water renewal. CdCl supplied by the E.P.A. was used as the reference toxicant for both of the Mysidopsis and Cyprinodon organisms. Both the Mysidopsis and the Cyprinodons used in this test were obtained from Aquatox, Inc., and were approximately 27 days old at the time of testing. Both batches of organisms were acclimated to the proper salinity, by adding 300 ml of synthetic, fresh water, every hour until test initiation. […]

Cyprinodon variegatus = assay: 48 hour acute static renewal toxicity bioassay, Cyprinodon variegatus (E.P.A./600/4-85/013); type: in vivo; settings: EPA Probit Analysis
Description: as §1, §2

[Cl][Cd][Cl] [CdCl]
EC50 (reduced survival), reference toxicant (Mysidopsis bahia): 0.1185 µg/mL | EC50 (reduced survival), reference toxicant (Cyprinodon variegatus): 7.8237 µg/mL

From patent US5725885A, “Composition for enhanced bioremediation of oil” (BioNutraTech, priority 1995, dated 1998)
